Measurements taken from PubChem BioAssay (NCI).
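Test compounds were applied to cells in 96-well plates for 48 hours at 5 doses. At the TGI there is no net growth.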

Tests used:
Experiment in all cases: growth of human tumour cells (NCI), 48 h
HOP-92 NSCLC = tested on: HOP-92 NSCLC
MALME-3M melanoma = tested on: MALME-3M melanoma
DMS 114 small cell lung = tested on: DMS 114 small cell lung
MOLT-4 leukemia = tested on: MOLT-4 leukemia
HT29 colon = tested on: HT29 colon
HCC-2998 colon = tested on: HCC-2998 colon
SNB-19 CNS = tested on: SNB-19 CNS
K-562 leukemia = tested on: K-562 leukemia
OVCAR-8 ovarian = tested on: OVCAR-8 ovarian
U251 CNS = tested on: U251 CNS
M14 melanoma = tested on: M14 melanoma
SR leukemia = tested on: SR leukemia
HL-60(TB) leukemia = tested on: HL-60(TB) leukemia
786-0 renal = tested on: 786-0 renal
NCI-H460 lung = tested on: NCI-H460 lung
SF-295 CNS = tested on: SF-295 CNS
A498 renal = tested on: A498 renal
CAKI-1 renal = tested on: CAKI-1 renal
MCF7 breast = tested on: MCF7 breast
MDA-MB-231 breast = tested on: MDA-MB-231 breast

Row | Structure (SMILES) | TGI (HOP-92 NSCLC) [µM] | TGI (MALME-3M melanoma) [µM] | TGI (DMS 114 small cell lung) [µM] | TGI (MOLT-4 leukemia) [µM] | TGI (HT29 colon) [µM] | TGI (HCC-2998 colon) [µM] | TGI (SNB-19 CNS) [µM] | TGI (K-562 leukemia) [µM] | TGI (OVCAR-8 ovarian) [µM] | TGI (U251 CNS) [µM] | TGI (M14 melanoma) [µM] | TGI (SR leukemia) [µM] | TGI (HL-60(TB) leukemia) [µM] | TGI (786-0 renal) [µM] | TGI (NCI-H460 lung) [µM] | TGI (SF-295 CNS) [µM] | TGI (A498 renal) [µM] | TGI (CAKI-1 renal) [µM] | TGI (MCF7 breast) [µM] | TGI (MDA-MB-231 breast) [µM]
1 | CC(C)=CCC/C(C)=C/Cc1c(O)c(C)cc2c1[nH]c1cc(O)ccc12 | > 25 | > 25 | > 25 | > 25 | > 25 | > 25 | > 25 | > 25 | > 25 | > 25 | > 25 | > 25 | > 25 | > 25 | > 25 | – | – | – | – | –
2 | NCCCC(N=Cc1nc(-c2ccccc2)oc1O)C(=O)O (stereo unspecified) | > 100 | > 100 | > 100 | > 100 | > 100 | > 100 | > 100 | > 100 | > 100 | > 100 | > 100 | > 100 | > 100 | > 100 | > 100 | > 100 | > 100 | – | – | –
3 | CSC1(C(=O)O)C2CCC3C2CCC31 (stereo unspecified) | > 100 | > 100 | – | > 100 | > 100 | > 100 | > 100 | > 100 | > 100 | > 100 | > 100 | > 100 | > 100 | > 100 | > 100 | > 100 | > 100 | > 100 | > 100 | > 100
4 | O=C1C=C(NCC(c2ccccc2)c2ccccc2)C(=O)c2ncccc21 | 12.9 | 3.4 | – | 6.91 | 25.8 | 2.12 | 9.62 | 4.1 | 11.5 | 11.4 | 3.25 | 4.87 | 3.32 | 15.3 | 1.92 | 3.51 | 9.69 | 11.4 | 3.33 | 11.5
5 | COc1ccc(C[C@@H](C(=O)O[C@H](C)[C@H](NC(=O)[C@@H](CC(C)C)N(C)C(=O)C2CCCN2C(=O)[C@H](C)O)C(=O)N2CCCCNC(=O)[C@@H](C)C(=O)[C@H](C(C)C)OC(=O)C[C@H](O)[C@H]2CC(C)C)N(C)C(C)=O)cc1 (stereo partly specified) | > 50 | 49.1 | – | 35.2 | 25.4 | 23 | > 50 | 39.7 | > 50 | 21.8 | > 50 | 25 | 25.2 | > 50 | 45.2 | > 50 | 43.6 | 41.6 | > 50 | 34.2
6 | COc1ccc2c(C)cc(N/N=C/c3ccc(C)s3)nc2c1 | > 51.6 | > 69.6 | – | 36.9 | 16.7 | 19.6 | > 67.2 | > 100 | 51.5 | > 48 | 23.2 | 31 | > 56.2 | 31.6 | 20 | 26.8 | 52.9 | 34.4 | 25.3 | 29.1
7 | CCOC(=O)C1=C(O)C(=O)c2ccoc2C1=O | > 100 | > 100 | > 100 | > 100 | > 100 | > 100 | > 100 | > 100 | > 100 | > 100 | > 100 | > 100 | > 100 | > 100 | > 100 | > 100 | > 100 | > 100 | – | –
